# In US20260250290A1 (BRISTOL-MYERS SQUIBB COMPANY, priority 2023, published 2026):
# Counter-ions that a name gives are not always drawn.
# Target: T1, full length SGK1 (Homo sapiens, UniProt O00141)
# T1 construct: 125 μM full length SGK1 (Life Technologies Part #PR7358A); purchased Life Technologies PR7358A
# T1 sequence (O00141 1-431): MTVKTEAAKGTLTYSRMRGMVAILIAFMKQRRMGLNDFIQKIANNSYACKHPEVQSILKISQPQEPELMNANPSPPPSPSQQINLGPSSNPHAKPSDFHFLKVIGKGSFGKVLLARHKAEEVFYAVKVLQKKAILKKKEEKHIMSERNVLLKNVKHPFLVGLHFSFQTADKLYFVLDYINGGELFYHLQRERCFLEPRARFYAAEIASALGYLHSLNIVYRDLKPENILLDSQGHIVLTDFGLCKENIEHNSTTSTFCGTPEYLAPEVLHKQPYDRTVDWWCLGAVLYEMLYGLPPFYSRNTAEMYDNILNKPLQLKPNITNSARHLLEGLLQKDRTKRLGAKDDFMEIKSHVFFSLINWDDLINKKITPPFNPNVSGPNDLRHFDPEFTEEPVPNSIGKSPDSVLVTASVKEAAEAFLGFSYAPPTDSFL
# Experiment: SGK1 inhibition Assay A (Caliper LabChip electrophoretic separation of fluorescent peptide substrate and phosphorylated product)
# Type: biochemical
# Settings: Assay A; 20 μM ATP, 40 min incubation; read-out: SGK1 IC50
row,IC50 [nM],Compound
1,596,CS(=O)(=O)c1ccc(-c2cc(N3CCC[C@@H](NC(=O)c4ccn5ccnc5c4)C3)c3c(N)ncnn23)cc1 [Example 54]
2,486,"COc1ccc(OC)c(C(=O)N[C@@H]2CCCN(c3cc(-c4ccc(S(C)(=O)=O)cc4)n4ncnc(N)c34)C2)c1 [Example 56, (R)-N-(1-(4-amino-7-(4-(methylsulfonyl)phenyl)pyrrolo[2,1-f][1,2,4]triazin-5-yl)piperidin-3-yl)-2,5-dimethoxybenzamide, TFA]"
3,112,"COc1ccc(C)cc1C(=O)N[C@@H]1CCCN(c2cc(-c3ccc(S(C)(=O)=O)cc3)n3ncnc(N)c23)C1 [Example 57, (R)-N-(1-(4-amino-7-(4-(methylsulfonyl)phenyl)pyrrolo[2,1-f][1,2,4]triazin-5-yl)piperidin-3-yl)-2-methoxy-5-methylbenzamide, TFA]"
4,854,"CS(=O)(=O)c1ccc(-c2cc(N3CCC[C@@H](NC(=O)c4ccccc4OC(F)F)C3)c3c(N)ncnn23)cc1 [Example 58, (R)-N-(1-(4-amino-7-(4-(methylsulfonyl)phenyl)pyrrolo[2,1-f][1,2,4]triazin-5-yl)piperidin-3-yl)-2-(difluoromethoxy) benzamide, TFA]"
5,10,"CS(=O)(=O)c1ccc(-c2cc(N3CCC[C@@H](NC(=O)c4ccccc4OCCO)C3)c3c(N)ncnn23)cc1 [Example 59, (R)-N-(1-(4-amino-7-(4-(methylsulfonyl)phenyl)pyrrolo[2,1-f][1,2,4]triazin-5-yl)piperidin-3-yl)-2-(2-hydroxyethoxy) benzamide]"
6,130,"COc1ncccc1C(=O)N[C@@H]1CCCN(c2cc(-c3ccc(S(C)(=O)=O)cc3)n3ncnc(N)c23)C1 [Example 60, (R)-N-(1-(4-amino-7-(4-(methylsulfonyl)phenyl)pyrrolo[2,1-f][1,2,4]triazin-5-yl)piperidin-3-yl)-2-methoxynicotinamide]"
7,33,"CS(=O)(=O)c1ccc(-c2cc(N3CCC[C@@H](NC(=O)c4cnco4)C3)c3c(N)ncnn23)cc1 [Example 61, (R)-N-(1-(4-amino-7-(4-(methylsulfonyl)phenyl)pyrrolo[2,1-f][1,2,4]triazin-5-yl)piperidin-3-yl)oxazole-5-carboxamide]"
8,111,"CS(=O)(=O)c1ccc(-c2cc(N3CCC[C@@H](NC(=O)c4ccsn4)C3)c3c(N)ncnn23)cc1 [Example 62, (R)-N-(1-(4-amino-7-(4-(methylsulfonyl)phenyl)pyrrolo[2,1-f][1,2,4]triazin-5-yl)piperidin-3-yl)isothiazole-3-carboxamide]"
9,105,"Cc1cc(C(=O)N[C@@H]2CCCN(c3cc(-c4ccc(S(C)(=O)=O)cc4)n4ncnc(N)c34)C2)on1 [Example 63, (R)-N-(1-(4-amino-7-(4-(methylsulfonyl)phenyl)pyrrolo[2,1-f][1,2,4]triazin-5-yl)piperidin-3-yl)-3-methylisoxazole-5-carboxamide, TFA]"
10,285,"CS(=O)(=O)c1ccc(-c2cc(N3CCC[C@@H](NC(=O)c4ccno4)C3)c3c(N)ncnn23)cc1 [Example 64, (R)-N-(1-(4-amino-7-(4-(methylsulfonyl)phenyl)pyrrolo[2,1-f][1,2,4]triazin-5-yl)piperidin-3-yl)isoxazole-5-carboxamide]"
11,19,"CC(C)c1cc(C(=O)N[C@@H]2CCCN(c3cc(-c4ccc(S(C)(=O)=O)cc4)n4ncnc(N)c34)C2)on1 [Example 65, (R)-N-(1-(4-amino-7-(4-(methylsulfonyl)phenyl)pyrrolo [2,1-f][1,2,4]triazin-5-yl)piperidin-3-yl)-3-isopropylisoxazole-5-carboxamide]"
12,39,"CS(=O)(=O)c1ccc(-c2cc(N3CCC[C@@H](NC(=O)c4cncs4)C3)c3c(N)ncnn23)cc1 [Example 66, (R)-N-(1-(4-amino-7-(4-(methylsulfonyl)phenyl)pyrrolo[2,1-f][1,2,4]triazin-5-yl)piperidin-3-yl)thiazole-5-carboxamide]"
13,261,"COc1cc(C(=O)N[C@@H]2CCCN(c3cc(-c4ccc(S(C)(=O)=O)cc4)n4ncnc(N)c34)C2)c(OC)nn1 [Example 67, (R)-N-(1-(4-amino-7-(4-(methylsulfonyl)phenyl)pyrrolo[2,1-f][1,2,4]triazin-5-yl)piperidin-3-yl)-3,6-dimethoxypyridazine-4-carboxamide]"
14,287,"COc1cnccc1C(=O)N[C@@H]1CCCN(c2cc(-c3ccc(S(C)(=O)=O)cc3)n3ncnc(N)c23)C1 [Example 68, (R)-N-(1-(4-amino-7-(4-(methylsulfonyl)phenyl)pyrrolo[2,1-f][1,2,4]triazin-5-yl)piperidin-3-yl)-3-methoxyisonicotinamide]"
15,37,"CS(=O)(=O)c1ccc(-c2cc(N3CCC[C@@H](NC(=O)c4ccnc(N5CCOCC5)c4)C3)c3c(N)ncnn23)cc1 [Example 69, (R)-N-(1-(4-amino-7-(4-(methylsulfonyl)phenyl)pyrrolo[2,1-f][1,2,4]triazin-5-yl)piperidin-3-yl)-2-morpholinoisonicotinamide]"
16,21,"CS(=O)(=O)c1ccc(-c2cc(N3CCC[C@@H](NC(=O)c4cnns4)C3)c3c(N)ncnn23)cc1 [Example 70, (R)-N-(1-(4-amino-7-(4-(methylsulfonyl)phenyl)pyrrolo[2,1-f][1,2,4]triazin-5-yl)piperidin-3-yl)-1,2,3-thiadiazole-5-carboxamide]"
17,6,"COc1cc(C(=O)N[C@@H]2CCCN(c3cc(-c4ccc(S(C)(=O)=O)cc4)n4ncnc(N)c34)C2)sn1 [Example 71, (R)-N-(1-(4-amino-7-(4-(methylsulfonyl)phenyl)pyrrolo[2,1-f][1,2,4]triazin-5-yl)piperidin-3-yl)-3-methoxyisothiazole-5-carboxamide]"
18,13,"CS(=O)(=O)c1ccc(-c2cc(N3CCC[C@@H](NC(=O)c4cc(Cl)ns4)C3)c3c(N)ncnn23)cc1 [Example 72, (R)-N-(1-(4-amino-7-(4-(methylsulfonyl)phenyl)pyrrolo[2,1-f][1,2,4]triazin-5-yl)piperidin-3-yl)-3-chloroisothiazole-5-carboxamide, TFA]"
19,8,"Cc1cc(C(=O)N[C@@H]2CCCN(c3cc(-c4ccc(S(C)(=O)=O)cc4)n4ncnc(N)c34)C2)sn1 [Example 73, (R)-N-(1-(4-amino-7-(4-(methylsulfonyl)phenyl)pyrrolo[2,1-f][1,2,4]triazin-5-yl)piperidin-3-yl)-3-methylisothiazole-5-carboxamide]"
20,25,"CS(=O)(=O)c1ccc(-c2cc(N3CCC[C@@H](NC(=O)c4cc(Cl)no4)C3)c3c(N)ncnn23)cc1 [Example 74, (R)-N-(1-(4-amino-7-(4-(methylsulfonyl)phenyl)pyrrolo[2,1-f][1,2,4]triazin-5-yl)piperidin-3-yl)-3-chloroisoxazole-5-carboxamide, TFA]"
21,44,"CS(=O)(=O)c1ccc(-c2cc(N3CCC[C@@H](NC(=O)c4cnn(C(F)F)c4)C3)c3c(N)ncnn23)cc1 [Example 75, (R)-N-(1-(4-amino-7-(4-(methylsulfonyl)phenyl)pyrrolo[2,1-f][1,2,4]triazin-5-yl)piperidin-3-yl)-1-(difluoromethyl)-1H-pyrazole-4-carboxamide, TFA]"
22,53,"CS(=O)(=O)c1ccc(-c2cc(N3CCC[C@@H](NC(=O)c4cnn(CC(F)(F)F)c4)C3)c3c(N)ncnn23)cc1 [Example 76, (R)-N-(1-(4-amino-7-(4-(methylsulfonyl)phenyl)pyrrolo[2,1-f][1,2,4]triazin-5-yl)piperidin-3-yl)-1-(2,2,2-trifluoroethyl)-1H-pyrazole-4-carboxamide]"
23,31,"CC(C)n1cc(C(=O)N[C@@H]2CCCN(c3cc(-c4ccc(S(C)(=O)=O)cc4)n4ncnc(N)c34)C2)cn1 [Example 77, (R)-N-(1-(4-amino-7-(4-(methylsulfonyl)phenyl)pyrrolo[2,1-f][1,2,4]triazin-5-yl)piperidin-3-yl)-1-isopropyl-1H-pyrazole-4-carboxamide, TFA]"
24,67,"CS(=O)(=O)c1ccc(-c2cc(N3CCC[C@@H](NC(=O)c4cnn(C5CCOCC5)c4)C3)c3c(N)ncnn23)cc1 [Example 78, (R)-N-(1-(4-amino-7-(4-(methylsulfonyl)phenyl)pyrrolo[2,1-f][1,2,4]triazin-5-yl)piperidin-3-yl)-1-(tetrahydro-2H-pyran-4-yl)-1H-pyrazole-4-carboxamide]"
25,26,"CCc1cccc(C(=O)N[C@@H]2CCCN(c3cc(-c4ccc(S(C)(=O)=O)cc4)n4ncnc(N)c34)C2)c1 [Example 79, (R)-N-(1-(4-amino-7-(4-(methylsulfonyl)phenyl)pyrrolo[2,1-f][1,2,4]triazin-5-yl)piperidin-3-yl)-3-ethylbenzamide, TFA]"
26,14,"C=Cc1cccc(C(=O)N[C@@H]2CCCN(c3cc(-c4ccc(S(C)(=O)=O)cc4)n4ncnc(N)c34)C2)c1 [Example 80, (R)-N-(1-(4-amino-7-(4-(methylsulfonyl)phenyl)pyrrolo[2,1-f][1,2,4]triazin-5-yl)piperidin-3-yl)-3-vinylbenzamide]"
27,32,"CC(C)c1cccc(C(=O)N[C@@H]2CCCN(c3cc(-c4ccc(S(C)(=O)=O)cc4)n4ncnc(N)c34)C2)c1 [Example 81, (R)-N-(1-(4-amino-7-(4-(methylsulfonyl)phenyl)pyrrolo[2,1-f][1,2,4]triazin-5-yl)piperidin-3-yl)-3-isopropylbenzamide]"
28,15,"CS(=O)(=O)c1ccc(-c2cc(N3CCC[C@@H](NC(=O)c4cccc(C5CC5)c4)C3)c3c(N)ncnn23)cc1 [Example 82, (R)-N-(1-(4-amino-7-(4-(methylsulfonyl)phenyl)pyrrolo[2,1-f][1,2,4]triazin-5-yl)piperidin-3-yl)-3-cyclopropylbenzamide]"
